Source: ChEMBL document CHEMBL1201862, “PubChem BioAssay data set” (2004)
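Following 48 hours of exposure in 96-well plates, responses at five concentrations were used to interpolate endpoints linearly. Abbreviation: GI50, concentration required for 50% inhibition of growth.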 Active and inactive are the calls of the source. No stated cut-off is given here; in the data, active = GI50 up to about 1.1 µM and inactive = higher. Where a SMILES comes first, the peptide text is derived from it. The star is where a group is joined. Boc = CC(C)(C)OC(=O)*; OBn = c1ccc(CO*)cc1

Columns and labels:
Experiment in all cases: NCI-60 cell line screen, 48 h
[1] = system: Malme-3M
[2] = system: MCF7
[3] = system: SR
[4] = system: SK-OV-3
[5] = system: ACHN
[6] = system: SF-539
[7] = system: SF-295
[8] = system: SK-MEL-28
[9] = system: SF-268
[10] = system: OVCAR-3
[11] = system: U-251
[12] = system: MDA-MB-231
[13] = system: EKVX
[14] = system: OVCAR-4
[15] = system: KM12
[16] = system: SNB-19
[17] = system: A549
[18] = system: OVCAR-5
[19] = system: UACC-257
[20] = system: RPMI-8226

Row | SMILES | GI50 [1] | GI50 [2] | GI50 [3] | GI50 [4] | GI50 [5] | GI50 [6] | GI50 [7] | GI50 [8] | GI50 [9] | GI50 [10] | GI50 [11] | GI50 [12] | GI50 [13] | GI50 [14] | GI50 [15] | GI50 [16] | GI50 [17] | GI50 [18] | GI50 [19] | GI50 [20]
1 | O=C(CCc1cccc(O)c1)NCCc1cccc(O)c1 | > 100 µM (inactive) | > 100 µM (inactive) | > 100 µM (inactive) | > 100 µM (inactive) | > 100 µM (inactive) | > 100 µM (inactive) | > 100 µM (inactive) | > 100 µM (inactive) | > 100 µM (inactive) | > 100 µM (inactive) | > 100 µM (inactive) | > 100 µM (inactive) | > 100 µM (inactive) | > 100 µM (inactive) | > 100 µM (inactive) | > 100 µM (inactive) | > 100 µM (inactive) | > 100 µM (inactive) | > 100 µM (inactive) | –
2 | CC(C)CC(NC(=O)OC(C)(C)C)C(=O)N1CCCC1C(=O)OCc1ccccc1 (stereo not drawn) (Boc-Leu-Pro-OBn; configuration not given here) | > 100 µM (inactive) | 67.8 µM (inactive) | 15.3 µM (inactive) | > 100 µM (inactive) | > 100 µM (inactive) | > 100 µM (inactive) | > 100 µM (inactive) | 76.7 µM (inactive) | > 100 µM (inactive) | > 100 µM (inactive) | > 100 µM (inactive) | > 100 µM (inactive) | > 100 µM (inactive) | > 100 µM (inactive) | > 100 µM (inactive) | > 100 µM (inactive) | > 100 µM (inactive) | > 100 µM (inactive) | > 100 µM (inactive) | –
3 | CC(=O)C1=C(N=[N+]=[N-])c2cccc3cccc(c23)C1=O | 17.3 µM (inactive) | 10.6 µM (inactive) | – | 24 µM (inactive) | 16 µM (inactive) | 13.3 µM (inactive) | 22.5 µM (inactive) | – | 25.2 µM (inactive) | 12.2 µM (inactive) | 19.2 µM (inactive) | 11.5 µM (inactive) | 18.2 µM (inactive) | 23.6 µM (inactive) | 21.1 µM (inactive) | 30.1 µM (inactive) | 24.5 µM (inactive) | 16.5 µM (inactive) | 17.9 µM (inactive) | 18.5 µM (inactive)
4 | C1COCCN1.CN(C)c1ccc(-c2c(C#N)c(N)nc(S)c2C#N)cc1 | > 100 µM (inactive) | 53.1 µM (inactive) | 23.2 µM (inactive) | > 100 µM (inactive) | > 100 µM (inactive) | > 100 µM (inactive) | 61 µM (inactive) | 82.6 µM (inactive) | > 100 µM (inactive) | > 100 µM (inactive) | > 100 µM (inactive) | 34.4 µM (inactive) | > 100 µM (inactive) | 35 µM (inactive) | – | 39.9 µM (inactive) | > 100 µM (inactive) | > 100 µM (inactive) | 82.4 µM (inactive) | –
5 | Cc1ccc2c(c1)C(=O)N1CCC[C@H]1C=N2 | 18.7 µM (inactive) | 11.9 µM (inactive) | – | 42 µM (inactive) | 15 µM (inactive) | 18.3 µM (inactive) | 31.3 µM (inactive) | 22.7 µM (inactive) | 31.3 µM (inactive) | 19.1 µM (inactive) | 16.3 µM (inactive) | 19.2 µM (inactive) | 26.4 µM (inactive) | 19.4 µM (inactive) | 15.5 µM (inactive) | 28.2 µM (inactive) | 30.7 µM (inactive) | 28.4 µM (inactive) | 21.9 µM (inactive) | 10.1 µM (inactive)
6 | Nc1ccc(Cc2c(N)[nH]c(=O)[nH]c2=O)cc1 | > 100 µM (inactive) | > 100 µM (inactive) | – | > 100 µM (inactive) | > 100 µM (inactive) | > 100 µM (inactive) | > 100 µM (inactive) | > 100 µM (inactive) | > 100 µM (inactive) | > 100 µM (inactive) | > 100 µM (inactive) | > 100 µM (inactive) | – | > 100 µM (inactive) | – | > 100 µM (inactive) | > 100 µM (inactive) | > 100 µM (inactive) | > 100 µM (inactive) | > 100 µM (inactive)
7 | O=c1[nH]c(=O)n(C2CC(O)C(CO)O2)cc1C1=NC1 (centres undefined) | – | > 100 µM (inactive) | – | > 100 µM (inactive) | > 100 µM (inactive) | > 100 µM (inactive) | > 100 µM (inactive) | > 100 µM (inactive) | > 100 µM (inactive) | > 100 µM (inactive) | > 100 µM (inactive) | > 100 µM (inactive) | > 100 µM (inactive) | > 100 µM (inactive) | > 100 µM (inactive) | > 100 µM (inactive) | > 100 µM (inactive) | > 100 µM (inactive) | > 100 µM (inactive) | 50.6 µM (inactive)
8 | Cc1cc(C)c2c(=O)n(CC(O)CN3CCN(CCOCCO)CC3)sc2n1 (centres undefined) | 18.8 µM (inactive) | 18.3 µM (inactive) | 25.8 µM (inactive) | 26.4 µM (inactive) | 20 µM (inactive) | 20 µM (inactive) | > 100 µM (inactive) | 17.2 µM (inactive) | 20.8 µM (inactive) | 22.4 µM (inactive) | 18.1 µM (inactive) | 19.1 µM (inactive) | 18.7 µM (inactive) | 17.9 µM (inactive) | 22 µM (inactive) | 36.5 µM (inactive) | 32.4 µM (inactive) | 18.9 µM (inactive) | 12.2 µM (inactive) | –
9 | O=c1cc(N2CCNCC2)nc2ccccn12 | > 100 µM (inactive) | > 100 µM (inactive) | – | > 100 µM (inactive) | > 100 µM (inactive) | > 100 µM (inactive) | > 100 µM (inactive) | – | > 100 µM (inactive) | > 100 µM (inactive) | > 100 µM (inactive) | > 100 µM (inactive) | > 100 µM (inactive) | – | > 100 µM (inactive) | > 100 µM (inactive) | > 100 µM (inactive) | > 100 µM (inactive) | > 100 µM (inactive) | > 100 µM (inactive)
10 | C=C(C(N)=O)c1ccc([N+](=O)[O-])o1 | 2.2 µM (inactive) | 6.11 µM (inactive) | 9.46 µM (inactive) | 30.8 µM (inactive) | 2.89 µM (inactive) | 12.6 µM (inactive) | 42 µM (inactive) | 2.67 µM (inactive) | 8.36 µM (inactive) | 8.36 µM (inactive) | 15.6 µM (inactive) | 13.8 µM (inactive) | 18.1 µM (inactive) | 11.6 µM (inactive) | 16.7 µM (inactive) | 37.1 µM (inactive) | 15.1 µM (inactive) | 18.7 µM (inactive) | 8.51 µM (inactive) | –
11 | Cn1c(=O)c2c(nc(NCCCCl)n2CC(=O)O)n(C)c1=O | – | > 100 µM (inactive) | < 0.01 µM (active) | > 100 µM (inactive) | > 100 µM (inactive) | – | > 100 µM (inactive) | > 100 µM (inactive) | > 100 µM (inactive) | > 100 µM (inactive) | > 100 µM (inactive) | > 100 µM (inactive) | > 100 µM (inactive) | > 100 µM (inactive) | > 100 µM (inactive) | > 100 µM (inactive) | > 100 µM (inactive) | > 100 µM (inactive) | > 100 µM (inactive) | > 100 µM (inactive)
12 | CC(=O)O[C@H]1C(=O)[C@@]2(C)C(C(OC(=O)c3ccccc3)[C@]3(O)CC(OC(=O)C(O)C(NC(=O)c4ccccc4)c4ccc(F)cc4)C(C)=C1C3(C)C)[C@]1(OC(C)=O)CO[C@@H]1C[C@@H]2O (some centres undefined) | – | < 0.001 µM (active) | < 0.001 µM (active) | 0.00371 µM (active) | 0.0139 µM (active) | < 0.001 µM (active) | 0.00401 µM (active) | – | < 0.001 µM (active) | < 0.001 µM (active) | 0.00124 µM (active) | 0.00181 µM (active) | 0.00857 µM (active) | 0.0904 µM (active) | < 0.001 µM (active) | 0.00252 µM (active) | 0.00104 µM (active) | 0.00141 µM (active) | 1.17 µM (inactive) | < 0.001 µM (active)
13 | CC1=NN(c2cccc(Cl)c2)C2(C1=Cc1ccc(O)cc1)C(Cl)C(=O)N2c1nc2ccccc2s1 (centres undefined) | – | 17.8 µM (inactive) | 19.9 µM (inactive) | 22.8 µM (inactive) | 19.7 µM (inactive) | 35.4 µM (inactive) | 21.5 µM (inactive) | 29 µM (inactive) | 19.6 µM (inactive) | 26 µM (inactive) | 20 µM (inactive) | 24.6 µM (inactive) | 29.4 µM (inactive) | 22.6 µM (inactive) | 22.4 µM (inactive) | – | – | 29.4 µM (inactive) | 25.5 µM (inactive) | 17.5 µM (inactive)
14 | O=C(O)CCc1c2ccc(=O)c(O)c-2oc2c(O)c(O)ccc12 | 26.4 µM (inactive) | 14.8 µM (inactive) | 37.2 µM (inactive) | > 100 µM (inactive) | 39.1 µM (inactive) | – | 30.7 µM (inactive) | > 100 µM (inactive) | 32.4 µM (inactive) | 91.8 µM (inactive) | 30.1 µM (inactive) | 20.6 µM (inactive) | 28.8 µM (inactive) | 46.2 µM (inactive) | 29.3 µM (inactive) | > 100 µM (inactive) | > 100 µM (inactive) | > 100 µM (inactive) | > 100 µM (inactive) | 32 µM (inactive)
15 | CN1C(=O)N/C(=C\c2ccc(S(=O)(=O)N/N=C\C(O)C(O)C(O)CO)cc2)C1=O (centres undefined) | > 100 µM (inactive) | > 100 µM (inactive) | > 100 µM (inactive) | > 100 µM (inactive) | > 100 µM (inactive) | – | > 100 µM (inactive) | > 100 µM (inactive) | > 100 µM (inactive) | > 100 µM (inactive) | > 100 µM (inactive) | > 100 µM (inactive) | > 100 µM (inactive) | > 100 µM (inactive) | > 100 µM (inactive) | > 100 µM (inactive) | > 100 µM (inactive) | > 100 µM (inactive) | > 100 µM (inactive) | > 100 µM (inactive)
